{"source": "a melting point compilation (Tetko et al.; mined from patent text by program, amines drawn as free bases though some values may be those of a salt)"}
{"units": {"melting point": "°C"}}
{"smiles": "CCCCCCN(CCCCCC)C(=O)COc1cc(C(=O)O)c([N+](=O)[O-])c(C(=O)O)c1", "melting point": "180 to 184"}
{"smiles": "Nc1nc2ccccc2c2c1ncn2CCCCNC(=O)CCc1ccccc1", "melting point": "148 to 150"}
{"smiles": "N#Cc1ccc2[nH]cc(C3CCC(=O)C3)c2c1", "note": "(stereo unspecified)", "melting point": "136 to 138"}
{"smiles": "O=C1Nc2cc(F)ccc2OC1CCO", "note": "(stereo unspecified)", "melting point": "126 to 130"}
{"smiles": "CCN(CC)CCNC(=O)c1ccc2cc(I)ccc2n1", "melting point": "75 to 77"}
{"smiles": "Cc1noc(NS(=O)(=O)c2ccsc2C(=O)N(C)c2ccccc2)c1Br", "melting point": "51 to 55"}
{"smiles": "CC(C)Cn1c(=O)[nH]c(=O)c2cc(Cc3cccc4ccccc34)sc21", "melting point": "189 to 190"}
{"smiles": "CC1(C)CCC(C)(C)c2cc(-c3cccc(C#CC(=O)O)c3)ccc21", "melting point": "164 to 165"}
{"smiles": "O=C(CCCCN1CCOCC1)c1ccc2c(c1)C(=O)c1cc(C(=O)CCCCN3CCOCC3)ccc1-2", "melting point": "146 to 148"}
{"smiles": "O=C(O)COc1cc2c(c(Cl)c1Cl)C(=O)C(c1ccccc1)C2", "note": "(stereo unspecified)", "melting point": "181 to 185"}
{"smiles": "CS(=O)(=O)c1ccc(Oc2cc(OCc3ccccc3)c3[nH]c(C4=NCC(CCO)S4)cc3c2)cc1", "note": "(stereo unspecified)", "melting point": "97 to 98"}
{"smiles": "O=c1[nH]c2cc(F)c(Br)c([N+](=O)[O-])c2[nH]c1=O", "melting point": "323 to 327"}
{"smiles": "CCOc1ccc(-c2cc(Nc3ccc(OC)c(Cl)c3)nc(NC(C)=O)n2)cc1", "melting point": 214}
{"smiles": "N#CCOc1cc(-c2ccccc2)[nH]n1", "melting point": 143}
{"smiles": "c1ccc(-c2csc(CN3CCN(c4ccccc4)CC3)n2)cc1", "melting point": "142 to 143"}
{"smiles": "O=c1cc(-c2cccc(OP(=O)(O)O)c2)[nH]c2ccc(N3CCCC3)cc12", "melting point": "> 300"}
{"smiles": "COC(=O)c1scc(-c2ccccc2)c1-c1ccc(S(C)=O)c(F)c1", "note": "(stereo unspecified)", "melting point": 164}
{"smiles": "CCCCCNC(=O)Nc1ccc(N(C)C)cc1C(=O)NCC1CCN(C(c2ccccc2)c2ccccc2)CC1", "melting point": 218}
{"smiles": "O=[N+]([O-])c1cc(-c2nsc(C(F)(F)F)c2Cl)c(Cl)cc1Cl", "melting point": "104 to 106"}
{"smiles": "c1ccc(-c2ncc(-c3nnn[nH]3)cn2)cc1", "melting point": 237}
{"smiles": "CCOC(=O)C(Cc1ccc(OCCN2CCC(C)(C)c3cc(C(=NO)c4ccccc4)ccc32)cc1)OCC", "note": "(stereo unspecified)", "melting point": "46 to 48"}
{"smiles": "CCNC1C(C)CN(c2c(F)c(N)c3c(=O)c(C(=O)O)cn(C4CC4)c3c2OC)CC1C", "note": "(stereo unspecified)", "melting point": "202 to 204"}
{"smiles": "Cc1[nH]c(=O)[nH]c1C(=O)CC(C)C", "melting point": "232 to 233"}
{"smiles": "CCCCOCCCn1c(CCCC)nc2c(N)nc3cccnc3c21", "melting point": "101 to 102"}
{"smiles": "CN1C(=O)C(c2ccc(OC(F)F)cc2)(c2cccc(C3CC(=O)C3(C)C)c2)N=C1N", "note": "(stereo unspecified)", "melting point": "172 to 174"}
{"smiles": "O=C1Cn2c(c(Cl)c3ccccc32)-c2ccccc2N1", "melting point": "287 to 289"}
{"smiles": "COc1cc(-c2cc(Br)cs2)cc2oc(=O)c(C)c(C)c12", "melting point": "131 to 134"}
{"smiles": "CCCOc1ccc(-c2cccc(/C=C/C(=O)OCC)c2)cc1OC", "melting point": "66 to 68"}
{"smiles": "Nc1c2c(=O)c3ccccc3c(=O)c2c(N)c2c(=O)n(CCCCCCO)c(=O)c12", "melting point": "210 to 211"}
{"smiles": "CC(C)N(C)S(=O)(=O)NC(=O)c1ccc(F)c([N+](=O)[O-])c1", "melting point": "164 to 165"}
{"smiles": "CC1(C)CCC(C)(C)c2cc(-c3cc(-c4ccc(C(=O)NO)cc4)ccc3-c3ccccc3)ccc21", "melting point": "105 to 108"}
{"smiles": "O=C(NC1CCC(Oc2ccc(F)cc2)CC1)NC12CC3CC(CC(C3)C1)C2", "note": "(stereo unspecified)", "melting point": 243}
{"smiles": "O=C(NCc1ccc(Cl)cc1)c1cn(CCCOC2CCCCO2)c2c(F)cc(CO)cc2c1=O", "note": "(stereo unspecified)", "melting point": "148 to 150"}
{"smiles": "CO/C=C(/C(=O)OC)c1ccccc1C=CCO", "melting point": "78 to 80"}
{"smiles": "COc1ccc(-n2c3ccccc3c3cc(C(C#N)=C(C#N)c4cc(F)cc(F)c4)ccc32)cc1", "melting point": "140 to 142"}
{"smiles": "COc1ccccc1N1CCN(CCCCCS(=O)(=O)c2cccc3c(=O)c(C)c(-c4ccccc4)oc23)CC1", "melting point": "120 to 123"}
{"smiles": "CC(C)(Cc1c[nH]c2ccccc12)NC[C@H](O)CO", "melting point": "77 to 77.8"}
{"smiles": "Cc1ccc(-n2nccn2)c(C(=O)O)c1", "melting point": 168}
{"smiles": "CCC1C2C(C(=O)N1Cc1ccc3c(c1)OCO3)C(c1ccc(C#N)cc1)N1CCCC21", "note": "(stereo unspecified)", "melting point": "150 to 151"}
{"smiles": "CN1Cc2c(C#N)ncn2-c2cccc(F)c2C1=O", "melting point": "> 250"}
{"smiles": "CCCCCCCCCCC#Cc1cccc([C@H]2O[C@@H]2CO)c1", "melting point": "41 to 42"}
{"smiles": "CCOC(=O)CCc1cc(C(=O)CCCC(=O)O)ccc1OC", "melting point": "124 to 126"}
{"smiles": "CCCOc1ccc(C2=NN(C(=O)Nc3ccc(C(F)(F)F)cc3)CC2N(CCC)C(=O)OCC(Cl)(Cl)Cl)cc1", "note": "(stereo unspecified)", "melting point": "162 to 163"}
{"smiles": "O=C1OCC2C3OC(C4=C3CCCC4)C12", "note": "(stereo unspecified)", "melting point": "105 to 106"}
{"smiles": "COc1ccc2[nH]c3c(c2c1)CCSCCC3", "melting point": "122 to 124"}
{"smiles": "Cc1ncn(-c2ccc(CNC(=O)c3nc4n(c(=O)c3OCc3ccccc3)CCOC4(C)C)c(F)c2)n1", "melting point": "183 to 185"}
{"smiles": "CC(C)(C)c1ccc(C(=O)N[C@H]2CC[C@H](CCN3CCN(c4nccc5c4OCC5)CC3)CC2)cc1", "melting point": 183}
{"smiles": "CCCCCCCCCCCCCCOc1ccc(C(=O)NCc2ccccn2)cc1", "melting point": "91 to 93"}
{"smiles": "Cc1nc2cccc(Cn3ccc4cc(Cl)ccc43)c2c(=O)[nH]1", "melting point": "251 to 252"}
{"smiles": "CC(=O)C=CCCc1ccc(OCc2ccccc2)cc1", "melting point": "70 to 72"}
{"smiles": "CCOC(=O)C(C=O)Cc1cnc(C)c(C)c1", "note": "(stereo unspecified)", "melting point": "148 to 149"}
